Measurements from patent US20250361217A1, “FATTY ACID COMPOUNDS” (University of Pittsburgh - Of the Commonwealth System of …, priority 2022, published 2025).

Legend:
LncRNA GM15441 = assay: Fluorescence RNA in-situ hybridization for GM15441; type: in vivo, mice; settings: livers of HFD-treated groups
Method: Fluorescence RNA in-situ hybridization was performed on tissue sections using LNA ISH Optimization Kits (Qiagen, #339459) according to manufacturer's instructions. Briefly, the sectioning slides were deparaffinized and digested by proteinase K approach for 15 min at 37° C. U6, scrambled RNA, and GM15441 (LCD0173184) probes were hybridized at final concentration of 1 nM, 40 nM and 40 nM, respectively, followed by stringent washes of serial diluted SSC (Sigma, #S6639-1 L). After 30 min blocking, the slides were incubated with anti-DIG-POD (Roche, #11207733910) at 1:400 dilution for 60 min at RT according to manufacturer's instructions. TSA-plus Cyanine 3 (Akoya Bioscience, #NEL744001KT) substrate was added to the sections and incubated twice (5 min per incubation) to amplify the fluorescence signal. NucBlue Live ReadyProbes Reagent was applied to the slides at last to facilitate cell nuclei staining. Images were acquired on a fluorescent microscope (Leica, DMi8) using the Ocular Advanced Scientific Camera Control software (Digital Optics Limited).

ACLY = biological target: T1, ACLY (Mus musculus, UniProt Q91V92); assay: Thermal shift assay of liver proteins, ACLY; type: binding, mice
T1 construct: Proteins were extracted from the liver powder (50 mg) with 1 mL of phosphate-buffered saline; from tissue; host or cells: liver of male C57BL/6J mice (HFD, treated in vivo with vehicle or 11U3-2M)
T1 sequence (Q91V92 1-1091): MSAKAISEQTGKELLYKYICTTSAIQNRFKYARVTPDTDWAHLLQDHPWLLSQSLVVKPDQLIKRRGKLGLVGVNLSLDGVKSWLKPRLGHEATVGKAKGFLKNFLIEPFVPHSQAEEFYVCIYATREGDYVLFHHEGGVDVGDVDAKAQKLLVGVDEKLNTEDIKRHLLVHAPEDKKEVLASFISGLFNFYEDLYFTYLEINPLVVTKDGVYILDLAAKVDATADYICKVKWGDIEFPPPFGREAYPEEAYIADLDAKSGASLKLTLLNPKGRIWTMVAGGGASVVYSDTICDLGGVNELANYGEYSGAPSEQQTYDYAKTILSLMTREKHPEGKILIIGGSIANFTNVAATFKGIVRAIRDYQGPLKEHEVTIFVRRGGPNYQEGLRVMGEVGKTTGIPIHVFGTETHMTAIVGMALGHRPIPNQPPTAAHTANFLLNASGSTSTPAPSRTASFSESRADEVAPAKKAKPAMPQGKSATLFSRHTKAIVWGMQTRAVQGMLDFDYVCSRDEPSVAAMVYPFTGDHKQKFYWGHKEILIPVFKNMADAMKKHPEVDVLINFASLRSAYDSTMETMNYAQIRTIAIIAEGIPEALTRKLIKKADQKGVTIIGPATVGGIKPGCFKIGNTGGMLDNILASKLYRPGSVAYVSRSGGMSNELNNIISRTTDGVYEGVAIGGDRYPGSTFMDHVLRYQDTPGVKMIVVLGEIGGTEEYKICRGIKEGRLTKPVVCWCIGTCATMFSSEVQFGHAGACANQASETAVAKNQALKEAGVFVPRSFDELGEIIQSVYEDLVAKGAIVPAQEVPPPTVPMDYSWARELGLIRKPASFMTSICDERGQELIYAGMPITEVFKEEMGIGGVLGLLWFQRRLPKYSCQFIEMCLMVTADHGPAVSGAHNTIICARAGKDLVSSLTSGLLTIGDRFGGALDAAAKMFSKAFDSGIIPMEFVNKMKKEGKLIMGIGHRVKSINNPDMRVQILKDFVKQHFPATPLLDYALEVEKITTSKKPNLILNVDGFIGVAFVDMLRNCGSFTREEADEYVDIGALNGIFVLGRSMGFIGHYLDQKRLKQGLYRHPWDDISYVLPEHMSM
Method: (§1) The liver samples (50 mg) were homogenized and vortexed in ice-cold RIPA buffer containing phosphatase (Fisher Scientific, #PIA32957) and protease (Fisher Scientific, #PIA32953) inhibitor cocktails. Protein concentration was determined using a […] (Pierce). Protein lysates were mixed with LDS Sample Buffer (1:4) and heated for 2 min at 95° C. The lysates were then loaded and electrophoresed on a 10% Tris-Glycine eXtended (BioRad, Criterion #5671034). The proteins were electrophoretically transferred to a PVDF membrane (BioRad, #1620177), and the transfer was confirmed by staining the membrane with 0.1% Ponceau S solution (Sigma-Aldrich, #6226-79-5). The membrane was then blocked for 90 min at RT with 5% nonfat dry milk (LabScientific) or 5% BSA (MilliporeSigma) in TBS-T (tris buffered saline+0.1% Tween 20 [Thermo Fisher Scientific]). […] Quantitative densitometric analysis was performed using Image Lab software (Bio-Rad).
(§2) Thermal Shift Assay Proteins were extracted from the liver powder (50 mg) with 1 mL of phosphate-buffered saline (PBS—Gibco, Paisley, UK) containing phosphatase (Fisher Scientific, #PIA32957) and protease (Fisher Scientific, #PIA32953) inhibitors. […] The Supernatants were transferred to new tubes and analyzed by western blot as described above.

ACC = assay: Thermal shift assay of liver proteins, ACC; type: binding, mice
Method: as §1, §2

[1] = full cohorts, HFD+11U3-2M, higher temperature (52, 53.5, 55° C.)
[2] = one mouse per group, 52, 53.5 and 55° C.

ACLY thermal stability (ACLY; [1]): greatly increased
ACLY thermal stability compared to veh (ACLY; [2]): higher stability
Compound: CCCc1ccc(CCCCCCCCCC(C)(C)C(=O)O)o1 [11U3-2M, 2,2-Dimethyl-11-(5-propylfuran-2-yl)undecanoic acid]
GM15441 in-situ hybridization signal (LncRNA GM15441): only detected in the nucleus of cells from 11U3-2M treated livers
ACC thermal stability (ACC; [1]): greatly increased
ACC thermal stability compared to veh (ACC; [2]): higher stability
